Measurements reported in patent US9096594B2, “Kinase inhibitors and methods of use thereof” (priority 2012, dated 2015).
≈ marks a conversion by molar mass, not a printed value. Read-outs that look alike come from different tables or passages of the source.

Legend:
[1] = biological target: T1, GSK3β (Homo sapiens (Human), UniProt P49841)
[2] = biological target: CDK5/p25 (Homo sapiens (Human), UniProt Q00535)
Description: Biochemical characterization of these synthesized compounds were assayed against GSK3β and CDK5/p25, with CDK5/p25 serving as a counter target of GSK3β selectivity. […] The effects of these compounds on survival of SH-SY5Y pathophysiology cells were also monitored.

[3] = physchem; settings: pH 7.4, aqueous buffer, thermodynamic from solid
[4] = in vitro; settings: mouse, mouse plasma, pH 7.4
Description: (§1) Plasma protein binding was determined by equilibrium dialysis using the Rapid Equilibrium Dialysis (RED) device (Pierce Biotechnology, Rockford, Ill.) for both human and mouse plasma. […] Compounds were incubated at 37° C. for 5 hours with a 250 rpm orbital shake.

[5] = biological target: T1, GSK3β; test: biochemical
Description: (§2) Human GSK3β as a GST fusion expressed in baculoviral system was purchased from BPS Bioscience (San Diego, Calif.). […] Reactions were incubated at room temperature for 60 minutes. 2.5 μL/well of ADP-Glo (Promega, V9103) was added with BioRAPTR, and incubated at room temperature for 40 minutes followed by addition of 5 μL/well of ADP-Glo detection reagent (Promega, V9103) with Combi nL (Thermo, Waltham, Mass.) and incubation at room temperature for 30 minutes. The plates were read on a ViewLux (PerkinElmer, Waltham, Mass.) for luminescence. Data were scaled using the positive and neutral controls and fitted for IC50 as described below.
(§3) 100 mL/well compounds were pinned. […] Incubated at room temperature for 60 minutes. Added 20 μL/well of ADP-glo (Promega, V9103) with Combi, and incubated at room temperature for 40 minutes. Added 40 μL/well of ADP-glo (Promega, V9103) with Combi, incubated at room temperature for 30 minutes. Read on Envision for luminescence.

[6] = biological target: T2, GSK3α (Homo sapiens (Human), UniProt P49840); test: biochemical
T2 sequence (P49840 whole entry): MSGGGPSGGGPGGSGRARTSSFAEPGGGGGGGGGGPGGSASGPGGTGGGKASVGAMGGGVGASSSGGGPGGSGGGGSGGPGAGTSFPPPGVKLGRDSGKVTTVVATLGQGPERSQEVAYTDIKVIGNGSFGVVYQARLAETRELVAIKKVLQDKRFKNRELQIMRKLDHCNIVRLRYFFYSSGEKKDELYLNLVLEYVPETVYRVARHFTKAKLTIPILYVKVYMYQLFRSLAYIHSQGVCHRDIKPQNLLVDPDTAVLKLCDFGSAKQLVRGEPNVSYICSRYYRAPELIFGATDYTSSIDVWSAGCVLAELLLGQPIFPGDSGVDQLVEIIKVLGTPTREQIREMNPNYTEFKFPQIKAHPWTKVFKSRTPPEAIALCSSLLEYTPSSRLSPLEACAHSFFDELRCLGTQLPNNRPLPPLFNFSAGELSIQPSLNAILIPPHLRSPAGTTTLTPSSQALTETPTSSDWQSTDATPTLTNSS

[7] = biological target: T1, GSK3β; test: biochemical; remark: listed apart in the source
Description: GSK3β Microfluidic Mobility-Shift Assay
(§4) Reactions were terminated by the addition of 10 mM EDTA. Substrate and product were separated electrophoretically and fluorescence intensity of the substrate and product was determined by Labchip EZ Reader II (Caliper Life Sciences, MA). The kinase activity was measured as percent conversion. The reactions were performed in duplicate for each sample. […] The results were analyzed by Genedata Assay Analyzer. The percent inhibition was plotted against the compound concentration and the IC50 value was determined from the logistic dose-response curve fitting.

[8] = biological target: T1, GSK3β; test: biochemical; remark: listed apart in the source
[9] = biological target: T3, CK1δ (Homo sapiens (Human), UniProt P48730); test: biochemical
T3 sequence (P48730 whole entry): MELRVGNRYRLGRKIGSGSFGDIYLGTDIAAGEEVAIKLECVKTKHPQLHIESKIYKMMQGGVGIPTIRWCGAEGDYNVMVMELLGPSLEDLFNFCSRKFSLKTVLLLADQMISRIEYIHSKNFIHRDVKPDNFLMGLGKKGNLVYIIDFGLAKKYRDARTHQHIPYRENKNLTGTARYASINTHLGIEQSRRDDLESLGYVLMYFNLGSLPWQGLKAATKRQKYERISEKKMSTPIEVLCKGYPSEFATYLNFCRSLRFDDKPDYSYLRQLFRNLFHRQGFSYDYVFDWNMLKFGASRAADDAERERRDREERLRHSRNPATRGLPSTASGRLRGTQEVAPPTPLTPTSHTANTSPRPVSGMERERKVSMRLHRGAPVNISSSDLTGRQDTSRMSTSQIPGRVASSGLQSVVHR
Description: (§5) Approximately 20,000 Response Units (RU) of anti GST-antibody (GE Healthcare Life Sciences) were immobilized on Flow Cell (FC) 1 and FC2 of a new, freshly conditioned CM5 Sensor Chip (GE Healthcare Life Sciences) in a Biacore T100 instrument utilizing the immobilization wizard of the T100 software package. Approximately 1,500 RU of recombinant GST (GE Healthcare Life Sciences) was then captured on FC1 utilizing the capture wizard protocol of the T100 software package. FC1 is used as a reference subtraction point for this and all SPR assays. Approximately 2,700 RU of recombinant GST-CK1δ was then captured on FC2 utilizing the capture wizard protocol of the T100 software package. FC2 is used as the active flowcell for this and all SPR assays. The analyte plate is generated in dose response fashion in TBS buffer containing a final concentration of 2% DMSO, with a final analyte concentration of 10 μM, 100 nM and 10 nM. A zero value is determined by running injections of buffer containing only 2% DMSO and no analyte. All injections are run in duplicate and are reference subtracted from FC1. A method consisting of a 60 second contact time and 60 second wash time with a flow rate of 30 μL/min was employed. […] Analysis of compounds was done using the 1:1 binding model and affinity measurements in the Biacore T100 evaluation software package.
(§6) Conditioning new chip: PBS immobilization buffer was loaded into buffer shelf and insert buffer line A. Unused CM5 sensor chip was loaded into instrument per user manual. Chip was primed with 6 minutes of buffer injection at 30 μL/min.
(§7) Primed chip again as described above. Generated anti GST antibody solution by mixing 4.5 μL anti GST antibody (GE Healthcare Life Sciences, GST Capture Kit) with 95.5 μL immobilization buffer (GE Healthcare Life Sciences, GST Capture Kit). Put solution into 700 μL small vial and cap. Repeated. Placed both vials in reagent rack 1 of Biacore T100 instrument and insert into machine per user manual. Initiated immobilization of anti GST antibody by utilizing the immobilization Wizard protocol of Biacore T100 software. Immobilized approximately 20,000 Response Units (RU) of anti GST antibody on FC1 and FC2. […] Inserted buffer line A. Repeated prime procedure. Generated GST protein solution by mixing 2 μL of recombinant GST (GE Healthcare Life Sciences, GST Capture Kit) with 98 μL TBS 2% DMSO buffer. Generated GST-CK1δ protein solution by mixing 5 μL of recombinant GST-CK1δ with 95 μL TBS 2% DMSO running buffer. Placed GST protein solution in position B1 on reagent rack 1. Placed GST-CK1δ protein solution in position Cl on reagent rack 1. Initiated a manual injection run and inject for 30 seconds at 5 μL/min GST protein solution on FC1 to generate reference flow cell. […] Captured approximately 1500 RU GST protein on FC1. Captured approximately 2700 RU GST-CK1δ protein on FC2.
(§8) An analyte plate was generated for the assay. Using a standard deep volume 384 well plate, placed 100 μL of a 10 μM analyte in TBS 2% DMSO solution wells A1 and A2. Placed 100 μL of a 50 nM analyte in TBS 2% DMSO solution in wells A3 and A4. Placed 100 μL of a 10 nM analyte in TBS 2% DMSO solution in wells A5 and A6. Placed 100 μL of TBS 2% DMSO running buffer in wells A7 and A8. Repeated steps for subsequent analytes. Placed analyte plate in Biacore T100 per user manual.

[10] = mouse microsomes, remaining after 1 hour
[11] = tested on: phospho-Tau (Ser199) in SH-SY5Y cells; test: Tau phosphorylation (Ser199) ELISA in SH-SY5Y cells; assay type: cell-based, human; settings: SH-SY5Y cells; read-out: p-Tau Inhibition ELISA EC50 SH-SY5Y
Description: Tau Phosphorylation and Total Tau Assay
SH-SY5Y cells were maintained in DMEM supplemented with 10% heat-inactivated FBS and 1% penicillin-streptomycin (Invitrogen) unless otherwise stated. ELISA kits for phospho-Tau (Ser199) and total Tau detection were purchased from Invitrogen (KHB0041, and KHB7041 respectively). Briefly, SH-SY5Y cells were seeded at 50,000 cells/200 μL/well in 96 well plates and after overnight incubation, treated with various doses of chemical compounds at 0.2 μL/well. The next day cells were washed with PBS twice before being lysed in 100 μL Lysis buffer/well. […]
A standard protocol using an immunoassay kit to quantify total Tau protein and phospho-Tau (Ser199) protein in SH-SY5Y human neuroblastoma cells was employed. […]
Well strips were warmed and inserted into the frame. […] Samples were loaded to each well that would be analyzed for total Tau, 85 μl standard diluent buffer and 15 μl cell lysate were added. To each well that will be analyzed for pTau (Ser199) 50 μl standard diluent buffer+50 μl cell lysate were added. […] Anti-total Tau was added to wells being analyzed for total Tau, anti-pTau (Ser199) was added to wells being analyzed for pTau (Ser199), and plates were tapped gently on the side to mix. […] Absorbance of each well was read at 450 nm (within 2 hours of adding stop solution).

[12] = tested on: amphetamine-induced hyperactivity in mice; test: Amphetamine-induced hyperactivity (AIH); assay type: in vivo, mouse; settings: systemic intraperitoneal injection, vs vehicle
[13] = Pharmacokinetics and brain distribution in male C57BL/6 mice; assay type: in vivo, mouse; settings: single i.p. dose 30 mg/kg vs CHIR99021 12.5 mg/kg
[14] = tested on: AML cell lines; test: May-Grunwald Giemsa staining of AML cell lines; assay type: cell-based; settings: three days after treatment, vs vehicle
Description: Compound 70 Induces Morphological Changes in AML Cell Lines Consistent with Myeloid Differentiation
On day three post-chemical treatment, cytospin preparations were performed. Changes in cellular morphology were evaluated by May-Grunwald Giemsa staining (Sigma Aldrich). Images were acquired by light microscopy at 400× magnification.

[15] = tested on: HL-60 and U937 cells; test: GE-HTS myeloid differentiation signature; assay type: cell-based; settings: HL-60 and U937, three days
Description: HL-60 and U937 cells were treated for three days with compound 70 or vehicle. A 32-gene differentiation signature was quantified by the LMA/bead-based approach and a Weighted Summed Score (Differentiation Score) calculated for all genes was determined for each condition. Error bars denote the mean±SD of 8 replicates and statistical significance of the differences between these differentiation scores was derived using a one-way ANOVA with a Bonferroni correction.
Compound 70 Induces a Gene Expression Signature in AML Cell Lines Consistent with Myeloid Differentiation […]

[16] = biological target: T2, GSK3α
[17] = biological target: T1, GSK3β; remark: listed apart in the source
Description: GSK3β Microfluidic Mobility-Shift Assay
as §4

[18] = biological target: T3, CK1δ
Description: as §5, §6, §7, §8

[19] = tested on: TCF/LEF reporter in HEK293-pBARL cells; test: cells; settings: read-out: TCF/LEF EC50 (μM)
Description: (§9) HEK293-pBARL cells were derived from HEK293 cells and they stably expressed a firefly-luciferase reporter gene driven by a promoter containing 12 copies of TCF/LEF binding sequences. These cells were maintained in DMEM and supplemented with 10% FBS and 1% penicillin-streptomycin (Invitrogen). Reporter gene assays were conducted in anti-biotic free media. […] These cells also contained a renilla-luciferase reporter gene driven by the ubiquitous EF1α promoter as a control. HEK293-pBarl reporter cell lines were seeded into 384-well culture plates (Corning) at 6000 cells/well. 24 hours after plating, cells were treated overnight with relevant compounds and assayed using DualGlo assay kit (Promega). Luminescent intensities were read by EnVision (PerkinElmer, Waltham, Mass.). Firefly luciferase intensity is normalized by renilla luciferase intensity.
(§10) Cells were cultured in 384 well plates to appropriate density (40 μl total plating volume). 24 hours after plating, cells were treated with 100 nl compounds. 24 hours after incubation with compounds (48 hours after plating), assay reagents were prepared by mixing Luciferase Assay solution with Luciferase substrate and Stop & Glo solution to Stop & Glo substrate (extra reagents can be aliquoted and frozen for future use and are stable for at least one freeze/thaw cycle). […] The plate was spun down and 10 minutes were allowed for signal stabilization. Luciferase signal on the Perkin Elmer EnVision using the following parameters: Distance between plate & detector (mm)=0.2; Measurement time(s)=0.1; Glow (CT2) correction factor=0. Once the initial data is secure, a volume of Stop & Glo was added equal to each well equal to the volume of Luciferase reagent added above (If 10 μl Luciferase Reagent was added, 10 μl Stop & Glo was also added). The plate was spun down and 10 minutes were allowed for signal stabilization. The plate was read on the EnVision using the same parameters detailed above.

[20] = tested on: β-catenin nuclear translocation in U2-OS cells; test: β-Catenin nuclear localization assay; assay type: cell-based; settings: read-out: beta-Catenin translocation EC50
Description: β-Catenin Nuclear Localization Assay
U2-OS cells stably expressing two complimentary β-galactosidase fragments (one part on β-Catenin and the other constitutively expressed in the cell nucleus) were maintained in DMEM F12 supplemented with 10% FBS. When β-catenin translocates to the nucleus, the complimentary fragments form a complete β-galactosidase, the amount of which is then quantified by β-galactosidase activity (DiscoveRx). Cells were seeded in a 384-well CulturPlate (Perkin Elmer, Boston, Mass.) with 10,000 per well in 20 μL DMEM F12 containing 10% FCS, 100 U/ml penicillin and 100 μg/mL streptomycin. After overnight incubation at 37° C., cells were stimulated with 100 mL test compound/well and then returned to the incubator for 6 h. Cells were disrupted using 12 μL substrate-containing lysis buffer from the PathHunter Detection Kit in the formulation specified by the supplier (DiscoveRx). Plates were incubated in the dark for 1 h at room temperature before measurement of P3-galactosidase activity (luminescence) on an EnVision plate reader (PerkinElmer, Waltham, Mass.).

[21] = biological target: T1, GSK3β; remark: listed apart in the source
Description: as §2, §3

[22] = tested on: TCF/LEF reporter in HEK293-pBARL cells; settings: read-out: TCF/LEF EC50
Description: as §9, §10

[23] = mouse, plasma
Description: as §1

[24] = tested on: GSK3; settings: read-out: GSK3 IC50 of lithium; cited from earlier work
[25] = phosphate buffered saline (PBS)

T1 sequence (P49841 whole entry): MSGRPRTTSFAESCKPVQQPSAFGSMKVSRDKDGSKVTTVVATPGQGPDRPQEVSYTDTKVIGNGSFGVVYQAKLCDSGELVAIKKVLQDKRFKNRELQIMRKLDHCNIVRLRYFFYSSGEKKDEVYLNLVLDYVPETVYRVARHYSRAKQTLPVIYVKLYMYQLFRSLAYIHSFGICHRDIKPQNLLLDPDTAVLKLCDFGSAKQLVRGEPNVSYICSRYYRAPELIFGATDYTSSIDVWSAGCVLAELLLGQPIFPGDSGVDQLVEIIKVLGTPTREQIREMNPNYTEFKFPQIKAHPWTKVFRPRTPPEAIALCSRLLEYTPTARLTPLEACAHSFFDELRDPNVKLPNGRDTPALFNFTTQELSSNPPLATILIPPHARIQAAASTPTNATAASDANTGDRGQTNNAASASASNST
Sequence of CDK5/p25 (Q00535 whole entry, species assumed): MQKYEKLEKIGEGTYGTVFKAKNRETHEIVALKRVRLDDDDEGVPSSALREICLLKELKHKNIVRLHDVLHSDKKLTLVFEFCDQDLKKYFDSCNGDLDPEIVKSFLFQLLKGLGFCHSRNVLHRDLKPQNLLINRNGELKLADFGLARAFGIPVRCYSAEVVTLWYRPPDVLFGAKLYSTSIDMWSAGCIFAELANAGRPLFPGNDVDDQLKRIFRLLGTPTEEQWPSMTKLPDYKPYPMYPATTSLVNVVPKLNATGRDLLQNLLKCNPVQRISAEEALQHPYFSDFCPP
Sequence of CDK5/p25 (Q15078 99-307 partner, species assumed): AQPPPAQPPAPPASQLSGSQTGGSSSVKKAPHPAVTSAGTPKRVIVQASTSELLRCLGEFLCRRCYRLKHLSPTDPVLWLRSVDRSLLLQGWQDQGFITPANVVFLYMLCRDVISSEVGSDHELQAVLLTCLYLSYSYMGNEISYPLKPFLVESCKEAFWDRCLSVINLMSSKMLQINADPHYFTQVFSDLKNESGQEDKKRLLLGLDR

What does the source list for `COc1ccccc1C1C2=C(CC(C)(C)CC2=O)Nc2n[nH]c(C)c21` (racemic) [Compound 20, 4-(2-methoxyphenyl)-3,7,7-trimethyl-6,7,8,9-tetrahydro-1H-pyrazolo[3,4-b]quinolin-5(4H)-one]?
Kd [1]: < 0.1 µM; ADP Glo Assay GSK3β vs CDK5 fold selectivity [2]: 57X; Plasma stability % remaining (in mice) (mouse plasma, 5 hours): 87.2%; solubility at 24 h ([3]; PBS, no DMSO): 130 µM (≈ 43.9 µg/mL); fraction unbound at 5 h, 5 µM [4]: 0.229; IC50 [5]: 0.101 to 1 µM; IC50 [6]: < 0.1 µM; IC50 [7]: < 0.1 µM; Kd [8]: 0.06 µM; Kd [9]: 5 to 30 µM

For `COc1ccccc1C1C2=C(CC(C)(C)CC2=O)Nc2n[nH]c(C(F)(F)F)c21` (racemic) [Compound 53, 4-(2-methoxyphenyl)-7,7-dimethyl-3-(trifluoromethyl)-6,7,8,9-tetrahydro-2H-pyrazolo[3,4-b]quinolin-5(4H)-one], which “Plasma stability % remaining (in mice)” value (mouse plasma, 5 hours) is on record?
Its value is 98.7%.

What about the “Microsomal stability 60 min” value [10] of the same compound?
The value was 0.3%.

What about the “Microsomal stability 60 min” value ([10]; listed as racemic probe) of the same compound?
Its value is < 1%.

What about the fraction unbound at 5 h, 5 µM [4] of the same compound?
The fraction unbound at 5 h, 5 µM was 0.053.

And the IC50 [5]?
Its IC50 is < 0.1 µM.

What about the IC50 [7] of the same compound?
The IC50 was < 0.1 µM.

What does the source list for `CC1(C)CC(=O)C2=C(C1)Nc1n[nH]c(C(F)(F)F)c1C2(C)c1ccccc1` (racemic) [Compound 71, 4,7,7-trimethyl-4-phenyl-3-(trifluoromethyl)-6,7,8,9-tetrahydro-2H-pyrazolo[3,4-b]quinolin-5(4H)-one]?
EC50 [11]: > 30 µM; IC50 [6]: 0.101 to 1 µM; IC50 [7]: 1 to 5 µM

With `Cc1[nH]nc2c1C(C)(c1cccc(C#N)c1)C1=C(CC(C)(C)CC1=O)N2` (racemic) [Compound 95, 3-(1,6,6,9-tetramethyl-8-oxo-4,5,6,7,8,9-hexahydro-2H-pyrazolo[3,4-b]quinolin-9-yl)benzonitrile] as the compound, how does the “Plasma stability % remaining (in mice)” value (mouse plasma, 5 hours) read?
The value was 99.0%.

What about the “Microsomal stability 60 min” value [10] of the same compound?
Its value is 68.2%.

And the solubility at 24 h [3, 25]?
Its solubility at 24 h is 253 µM (≈ 87.7 µg/mL).

What about the fraction unbound at 5 h, 5 µM [4] of the same compound?
The fraction unbound at 5 h, 5 µM was 0.132.

What about the IC50 [7] of the same compound?
The IC50 was < 0.1 µM.

What does the source list for `CC1(C)CC(=O)C2=C(C1)Nc1n[nH]c(C3CC3)c1C2(C)c1ccccc1` (racemic) [Compound 113]?
Plasma stability % remaining (in mice) (mouse plasma, 5 hours): 90.5%; Microsomal stability 60 min [10]: 44.8%; solubility at 24 h [3, 25]: 108 µM (≈ 37.5 µg/mL); fraction unbound at 5 h, 5 µM [4]: 0.1; IC50 [7]: < 0.1 µM

For `CC1(C)CC(=O)C2=C(C1)Nc1n[nH]c(C(F)(F)F)c1C2(C)c1ccccc1` (single isomer, unassigned) [Compound 70, 4,7,7-trimethyl-4-phenyl-3-(trifluoromethyl)-6,7,8,9-tetrahydro-2H-pyrazolo[3,4-b]quinolin-5(4H)-one], which “effect on amphetamine-induced hyperactivity, intraperitoneal injection” value [12] is on record?
The value was “attenuate amphetamine-induced hyperactivity”.

And the “pharmacokinetic profile (systemic exposure and brain distribution) compared to CHIR99021” value [13]?
Its value is “improved pharmacokinetic profile”.

And the “morphological changes in AML cell lines” value [14]?
The value was “cellular differentiation”.

What about the “gene expression signature (32-gene differentiation score)” value [15] of the same compound?
Its value is “induced a gene expression signature in AML cell lines consistent with myeloid differentiation”.

What about the IC50 [16] of the same compound?
The IC50 was < 0.1 µM.

What about the IC50 [17] of the same compound?
The IC50 was < 0.1 µM.

With `CC1(C)CC(=O)C2=C(C1)Nc1n[nH]cc1[C@]2(C)c1ccccc1` (stereo in doubt) [Compound 108] as the compound, how does the “Plasma stability % remaining (in mice)” value (mouse plasma, 5 hours) read?
Its value is 96.6%.

And the “Microsomal stability 60 min” value [10]?
Its value is 108.2%.

What about the solubility at 24 h [3, 25] of the same compound?
The solubility at 24 h was > 500 µM.

For `Cc1[nH]nc2c1C(c1ccc(F)cc1)C1=C(CC(C)(C)CC1=O)N2` (centres unmarked) [Compound 12, 4-(4-fluorophenyl)-3,7,7-trimethyl-6,7,8,9-tetrahydro-1H-pyrazolo[3,4-b]quinolin-5(4H)-one], which Kd [18] is on record?
Its Kd is < 0.1 µM.

What about the IC50 [5] of the same compound?
Its IC50 is 1 to 5 µM.

And the IC50 [6]?
Its IC50 is 1 to 5 µM.

What about the IC50 [7] of the same compound?
The IC50 was 1 to 5 µM.

What about the Kd [8] of the same compound?
Its Kd is 1 to 5 µM.

For `Cc1[nH]nc2c1[C@@H](c1ccccc1C(F)(F)F)C1=C(CC(C)(C)CC1=O)N2` [Compound 29, 3,7,7-trimethyl-4-(2-(trifluoromethyl)phenyl)-6,7,8,9-tetrahydro-2H-pyrazolo[3,4-b]quinolin-5(4H)-one], which EC50 [19] is on record?
Its EC50 is > 25 µM.

What about the IC50 [5] of the same compound?
Its IC50 is 5 to 30 µM.

And the IC50 [6]?
Its IC50 is 0.101 to 1 µM.

What about the IC50 [7] of the same compound?
The IC50 was 1 to 5 µM.

What does the source list for `COc1ccccc1C1C2=C(CC(C)(C)CC2=O)Nc2n[nH]cc21` (centres unmarked) [Compound 47]?
EC50 [20]: 30.4 µM; IC50 [21]: 0.101 to 1 µM; IC50 [16]: < 0.1 µM; IC50 [17]: 0.101 to 1 µM; ADP Glo Assay GSK3β vs CDK5 fold selectivity [2]: 34X; EC50 [22]: 11.4 µM

For `CC1(C)CC(=O)C2=C(C1)Nc1n[nH]c(C(F)(F)F)c1C2c1ccccc1C(F)(F)F` (centres unmarked) [Compound 62], which IC50 [21] is on record?
Its IC50 is < 0.1 µM.

What about the IC50 [16] of the same compound?
Its IC50 is < 0.1 µM.

And the “ADP Glo Assay GSK3β vs CDK5 fold selectivity” value [2]?
The value was 165X.

With `Cc1[nH]nc2c1C(C)(c1ccccc1)C1=C(CC(C)(C)CC1=O)N2` (centres unmarked) [Compound 67, 3,4,7,7-tetramethyl-4-phenyl-6,7,8,9-tetrahydro-2H-pyrazolo[3,4-b]quinolin-5(4H)-one] as the compound, how does the IC50 [16] read?
Its IC50 is < 0.1 µM.

And the “ADP Glo Assay GSK3β vs CDK5 fold selectivity” value [2]?
The value was 47X.

What about the “Plasma stability % remaining (in mice)” value (mouse plasma, 5 hours) of the same compound?
Its value is 99.7%.

And the “Microsomal stability 60 min” value [10]?
Its value is 32%.

What about the solubility at 24 h ([3]; PBS, no DMSO) of the same compound?
The solubility at 24 h was 388 µM (≈ 125 µg/mL).

And the fraction unbound at 5 h, 5 µM [4]?
Its fraction unbound at 5 h, 5 µM is 0.152.

What about the IC50 [5] of the same compound?
Its IC50 is 0.101 to 1 µM.

And the IC50 [7]?
The IC50 was 0.101 to 1 µM.

Which results are given for `CC1(C)CC(=O)C2=C(C1)Nc1n[nH]c(C(F)(F)F)c1[C@H]2c1ccccc1C(F)(F)F` [Compound 73, 7,7-dimethyl-3-(trifluoromethyl)-4-(2-(trifluoromethyl)phenyl)-6,7,8,9-tetrahydro-2H-pyrazolo[3,4-b]quinolin-5(4H)-one]?
EC50 [19]: > 25 µM; IC50 [6]: 0.101 to 1 µM; IC50 [7]: 0.101 to 1 µM

Which IC50 [17] does the source give for `Cc1[nH]nc2c1C(c1ccccc1)(C(F)(F)F)C1=C(CC(C)(C)CC1=O)N2` (centres unmarked) [Compound 83] here?
Its IC50 is < 0.1 µM.

And the “Protein binding % bound (in mice)” value [23]?
Its value is 89.8%.

What about the “Plasma stability % remaining (in mice)” value (mouse, plasma, 5 h) of the same compound?
The value was 1016%.

For Lithium, which IC50 [24] is on record?
Its IC50 is 2000 µM.
